Experimental data as given in patent US20110071201A1, “PHENOL-CONTAINING AZOLE COMPOSITIONS FOR THE PROTECTION OF INDUSTRIAL MATERIALS” (LANXESS DEUTSCHLAND GMBH, priority 2009, published 2011).

Assays:
[1] = system: Lentinus tigrinus; assay: Agar hyphae growth inhibition test (MIC) with Kull synergism index; format: cell-based; details: 168 h, malt extract/peptone nutrient agar, 26° C., about 1 week, concentration at which radial hyphae growth was suppressed completely, read-out: MIC value against Lentinus tigrinus
[2] = system: Coriolus versicolor; assay: as above; format: cell-based; details: Trametes versicolor, 168 h; malt extract/peptone nutrient agar, 26° C., about 1 week; concentration at which radial hyphae growth was suppressed completely; read-out: MIC value against Coriolus versicolor
Procedure: Mycelium pieces were punched out of a colony of the wood-destroying organism Coriolus versicolor and incubated on a malt extract/peptone-containing nutrient agar at 26° C. The growth of the hyphae with and without active compound and 6,6′-di-tert-butyl-2,2′-methylenedi-p-cresol was compared. The minimum inhibitory concentration (MIC) stated was the concentration at which the radial hyphae growth was suppressed completely (incubation time: about 1 week, independently of the fungal growth of the comparative sample without active compound).
The synergism was determined by the method described by Kull et al. (F. C. Kull, P. C. Eismann, H. D. Sylvestrowicz, R. L. Mayer, Applied Microbiology 1961, 9, 538-541). The following relationships apply:
SI=1 means additivity SI>1 means antagonism SI<1 means synergism Qa=concentration of substance A which is the MIC Qb=concentration of substance B which is the MIC QA=concentration of substance A in the concentration of A/B at which microbial growth is suppressed QB=concentration of substance B in the concentration of A/B at which microbial growth is suppressed

[3] = Solubility in water and vapour pressure; format: physicochemical

Row | Compound | MIC [1] | MIC [2] | solubility in water [3] | vapour pressure ([3]; at 50° C.)
1 | CC(C)(C)C(O)(CCc1ccc(Cl)cc1)Cn1cncn1 (centres unmarked) [tebuconazole, reference compound] | 0.3 µg/mL | 1 µg/mL |  | 
2 | Cc1cc(Cc2cc(C)cc(C(C)(C)C)c2O)c(O)c(C(C)(C)C)c1 [phenol I, 6,6′-di-tert-butyl-2,2′-methylenedi-p-cresol] |  | > 30 µg/mL | < 1 ppm | 0.0001 hPa
